Data: patent USRE48097E1, “Cephem compounds, their production and use” (priority 2015, dated 2020)
Converted amounts (≈) assume the structure as drawn.

How the values were obtained:
S. aureus 3136 = assay: MIC against S. aureus 3136; type: cell-based; settings: Table 2, S. aureus 3136, MSSA
Description: (§1) Without limitation, the present cephem compounds alone, or in combination with one or more β-lactamase inhibitors, may provide improved antibacterial efficacy, particularly in antibiotic-resistant bacterial strains. It is believed that the present compounds may be structurally different from known compounds and, as a result, may be more basic in nature. It is an advantage that the present compounds may extend the spectrum of effective bacterial compounds, particularly against previously-resistant bacteria (e.g. ESKAPE organisms), and/or gram negative bacteria, without significant side effects. In a preferred embodiment, the present cephem compound may comprise reference compound ceftazidime, which may be used alone, or in combination with one or more β-lactamase inhibitors, such as NXL-104. As shown, the foregoing composition was tested for minimum inhibitory concentration (MIC, μg/mL) against bacteria listed in Tables 2-3.

S. pneumoniae 2492 = assay: MIC against S. pneumoniae 2492; type: cell-based; settings: Table 2, S. pneumoniae 2492, Pen R
Description: as §1

E. cloacae 566 = assay: MIC against E. cloacae 566; type: cell-based; settings: Table 2, E. cloacae 566, Caz R, IMP S
Description: as §1

E. cloacae596 = assay: MIC against E. cloacae596; type: cell-based, E. cloacae; settings: Table 2, E. cloacae596, Caz R, IMP S
Description: as §1

E. cloacae 2044 = assay: MIC against E. cloacae 2044; type: cell-based; settings: Table 2, E. cloacae 2044, Caz S, IMP S
Description: as §1

C. freundii 579 = assay: MIC against C. freundii 579; type: cell-based; settings: Table 2, C. freundii 579, Caz R, IMP S
Description: as §1

C. freundii 2003 = assay: MIC against C. freundii 2003; type: cell-based; settings: Table 2, C. freundii 2003, Caz R, IMP S
Description: as §1

K. pneumoniae 4104 = assay: MIC against K. pneumoniae 4104; type: cell-based; settings: K. pneumoniae 4104, KPC-3, TEM-1
Procedure: (§2) As shown, the foregoing composition was tested for minimum inhibitory concentration (MIC, μg/mL) against bacteria listed in Tables 2-3.

K. pneumoniae 4105 = assay: MIC against K. pneumoniae 4105; type: cell-based; settings: K. pneumoniae 4105, KPC-3, TEM-1, SHV-11
Procedure: as §2

K. pneumoniae 4106 = assay: MIC against K. pneumoniae 4106; type: cell-based; settings: K. pneumoniae 4106, KPC-3, TEM-1, SHV-12, SHV-141
Procedure: as §2

K. pneumoniae 4109 = assay: MIC against K. pneumoniae 4109; type: cell-based; settings: Table 2, K. pneumoniae 4109, SHV-1, SHV-12
Description: as §1

M. morganii 2409 = assay: MIC against M. morganii 2409; type: cell-based; settings: Table 2, M. morganii 2409, High level cephase, β-Lactamase producing
Description: as §1

K. pneumoniae 2689 = assay: MIC against K. pneumoniae 2689; type: cell-based; settings: K. pneumoniae 2689, KPC-2
Procedure: as §2

E. coli 2671 = assay: MIC against E. coli 2671; type: cell-based; settings: Table 2, E. coli 2671, VIM-19
Description: as §1

E. coli 4098 = assay: MIC against E. coli 4098; type: cell-based; settings: Table 2, E. coli 4098, CTX-M-15, TEM-1
Description: as §1

E. coli 4102 = assay: MIC against E. coli 4102; type: cell-based; settings: Table 2, E. coli 4102, CTX-M-14
Description: as §1

E. coli 102 = assay: MIC against E. coli 102; type: cell-based; settings: Table 2, E. coli 102, TEM-1
Description: as §1

K. baumanii 4091 = assay: MIC against K. baumanii 4091; type: cell-based; settings: Table 2, K. baumanii 4091, OXA-23
Description: as §1

E. cloacae 2689 = assay: MIC against E. cloacae 2689; type: cell-based; settings: Table 3, E. cloacae 2689, KPC-2
Procedure: as §2

E. coli 4103 = assay: MIC against E. coli 4103; type: cell-based; settings: Table 3, E. coli 4103, KPC-2, TEM-1, CMY-type
Procedure: as §2

K. pneumoniae 2711 = assay: MIC against K. pneumoniae 2711; type: cell-based; settings: Table 3, K. pneumoniae 2711, KPC-3, VIM-1
Procedure: as §2

K. pneumoniae 2712 = assay: MIC against K. pneumoniae 2712; type: cell-based; settings: Table 3, K. pneumoniae 2712, KPC-3, VIM-1
Procedure: as §2

K. pneumoniae 2713 = assay: MIC against K. pneumoniae 2713; type: cell-based; settings: Table 3, K. pneumoniae 2713, KPC-3, VIM-1
Procedure: as §2

[1] = Table 2, in combination with NXL-104
[2] = Table 3, in combination with NXL-104

MIC (S. aureus 3136; alone): 8.00 mg/L | MIC (S. aureus 3136; in combination with NXL-104): 8.00 mg/L | MIC (S. pneumoniae 2492; alone): 8.00 mg/L | MIC (S. pneumoniae 2492; in combination with NXL-104): 8.00 mg/L | MIC (E. cloacae 566; alone): >32 mg/L | MIC (E. cloacae 566; in combination with NXL-104): 2.00 mg/L | MIC (E. cloacae596; alone): 4.00 mg/L | MIC (E. cloacae596; in combination with NXL-104): 1.00 mg/L | MIC (E. cloacae 2044; alone): 1.00 mg/L | MIC (E. cloacae 2044; in combination with NXL-104): 0.25 mg/L | MIC (C. freundii 579; alone): 4.00 mg/L | MIC (C. freundii 579; in combination with NXL-104): 2.00 mg/L | MIC (C. freundii 2003; alone): 4.00 mg/L | MIC (C. freundii 2003; in combination with NXL-104): 1.00 mg/L | MIC (K. pneumoniae 4104; Table 2, alone): 32.00 mg/L (≈ 58.5 µM) | MIC (K. pneumoniae 4104; [1]): 8.00 mg/L | MIC (K. pneumoniae 4104; Table 3, alone): >32 mg/L | MIC (K. pneumoniae 4104; [2]): 2 mg/L | MIC (K. pneumoniae 4105; Table 2, alone): 32.00 mg/L (≈ 58.5 µM) | MIC (K. pneumoniae 4105; [1]): 4.00 mg/L | MIC (K. pneumoniae 4105; Table 3, alone): >32 mg/L | MIC (K. pneumoniae 4105; [2]): 4 mg/L | MIC (K. pneumoniae 4106; Table 2, alone): 16.00 mg/L (≈ 29.3 µM) | MIC (K. pneumoniae 4106; [1]): 4.00 mg/L | MIC (K. pneumoniae 4106; Table 3, alone): >32 mg/L | MIC (K. pneumoniae 4106; [2]): 8 mg/L | MIC (K. pneumoniae 4109; alone): 2.00 mg/L | MIC (K. pneumoniae 4109; in combination with NXL-104): 0.50 mg/L | MIC (M. morganii 2409; alone): 16.00 mg/L | MIC (M. morganii 2409; in combination with NXL-104): 4.00 mg/L | MIC (K. pneumoniae 2689; Table 2, alone): 32.00 mg/L (≈ 58.5 µM) | MIC (K. pneumoniae 2689; [1]): 4.00 mg/L | MIC (K. pneumoniae 2689; Table 3, alone): >32 mg/L | MIC (K. pneumoniae 2689; [2]): 4 mg/L | MIC (E. coli 2671; alone): 32.00 mg/L | MIC (E. coli 2671; in combination with NXL-104): 32.00 mg/L | MIC (E. coli 4098; alone): 2.00 mg/L | MIC (E. coli 4098; in combination with NXL-104): 0.50 mg/L | MIC (E. coli 4102; alone): 1.00 mg/L | MIC (E. coli 4102; in combination with NXL-104): 0.25 mg/L | MIC (E. coli 102; alone): 0.12 mg/L | MIC (E. coli 102; in combination with NXL-104): 0.12 mg/L | MIC (K. baumanii 4091; alone): >32 mg/L | MIC (K. baumanii 4091; in combination with NXL-104): 16.00 mg/L | MIC (E. cloacae 2689; alone): >32 mg/L | MIC (E. cloacae 2689; in combination with NXL-104): 2 mg/L | MIC (E. coli 4103; alone): >32 mg/L | MIC (E. coli 4103; in combination with NXL-104): 16 mg/L | MIC (K. pneumoniae 2711; alone): >32 mg/L | MIC (K. pneumoniae 2711; in combination with NXL-104): 2 mg/L | MIC (K. pneumoniae 2712; alone): >32 mg/L | MIC (K. pneumoniae 2712; in combination with NXL-104): 16 mg/L | MIC (K. pneumoniae 2713; alone): >32 mg/L | MIC (K. pneumoniae 2713; in combination with NXL-104): 8 mg/L
Structure (SMILES): CC(C)(O/N=C(\C(=O)N[C@@H]1C(=O)N2C(C(=O)[O-])=C(C[n+]3ccccc3)CS[C@H]12)c1csc(N)n1)C(=O)O [CAZ, ceftazidime, reference compound]
